Reference: ChEMBL document CHEMBL4376867 (J Med Chem, 2020)
Converted amounts (≈) assume the structure as drawn.

Tests used:
[1] = target: T1, Serine/threonine-protein kinase TBK1 (Homo sapiens, UniProt Q9UHD2); assay: Inhibition of recombinant full length human N-terminal His-tagged TBK1 using biotin-labelled Ahx-GDEDFSSFAEPG peptide as substrate preincubated with enzyme for 15 mins followed by substrate addition and further incubated for 30 mins in presence of 1 mM of ATP by TR-FRET assay
T1 sequence (Q9UHD2 whole entry): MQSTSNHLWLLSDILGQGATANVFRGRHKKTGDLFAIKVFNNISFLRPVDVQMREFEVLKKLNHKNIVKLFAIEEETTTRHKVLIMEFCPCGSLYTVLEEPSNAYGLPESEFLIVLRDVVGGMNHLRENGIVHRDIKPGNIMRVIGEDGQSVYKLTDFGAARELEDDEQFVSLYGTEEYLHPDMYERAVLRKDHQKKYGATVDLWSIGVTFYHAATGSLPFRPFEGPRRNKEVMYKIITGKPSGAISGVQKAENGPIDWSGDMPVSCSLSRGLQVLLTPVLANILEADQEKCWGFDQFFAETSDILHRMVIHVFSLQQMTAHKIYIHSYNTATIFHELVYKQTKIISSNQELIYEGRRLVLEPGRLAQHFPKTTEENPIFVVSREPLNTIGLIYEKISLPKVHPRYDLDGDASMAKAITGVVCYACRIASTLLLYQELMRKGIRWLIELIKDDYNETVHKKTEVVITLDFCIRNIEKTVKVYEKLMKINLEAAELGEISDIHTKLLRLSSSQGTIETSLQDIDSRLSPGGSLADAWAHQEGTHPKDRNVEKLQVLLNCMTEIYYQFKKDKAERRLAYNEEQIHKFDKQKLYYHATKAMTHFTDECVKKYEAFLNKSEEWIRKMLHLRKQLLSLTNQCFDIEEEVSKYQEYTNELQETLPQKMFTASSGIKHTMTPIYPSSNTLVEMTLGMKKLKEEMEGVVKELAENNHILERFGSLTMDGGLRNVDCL

[2] = system: ACHN; assay: Antiproliferative activity against human ACHN cells harboring CDKN2A mutation assessed as reduction in cell viability after 96 hrs by CellTiter-Glo luminescence assay; type: functional, cell-based
[3] = target: T2, Receptor-type tyrosine-protein kinase FLT3 (Homo sapiens, UniProt P36888); assay: Inhibition of recombinant human N-terminal GST-tagged FLT3 (564 to end residues) expressed in sf21 cells using biotin labelled Ahx-GGEEEEYFELVKKKK peptide as substrate preincubated with enzyme for 15 mins followed by substrate addition and further incubated for 45 mins in presence of 10 uM of ATP by TR-FRET assay
T2 sequence (P36888 whole entry): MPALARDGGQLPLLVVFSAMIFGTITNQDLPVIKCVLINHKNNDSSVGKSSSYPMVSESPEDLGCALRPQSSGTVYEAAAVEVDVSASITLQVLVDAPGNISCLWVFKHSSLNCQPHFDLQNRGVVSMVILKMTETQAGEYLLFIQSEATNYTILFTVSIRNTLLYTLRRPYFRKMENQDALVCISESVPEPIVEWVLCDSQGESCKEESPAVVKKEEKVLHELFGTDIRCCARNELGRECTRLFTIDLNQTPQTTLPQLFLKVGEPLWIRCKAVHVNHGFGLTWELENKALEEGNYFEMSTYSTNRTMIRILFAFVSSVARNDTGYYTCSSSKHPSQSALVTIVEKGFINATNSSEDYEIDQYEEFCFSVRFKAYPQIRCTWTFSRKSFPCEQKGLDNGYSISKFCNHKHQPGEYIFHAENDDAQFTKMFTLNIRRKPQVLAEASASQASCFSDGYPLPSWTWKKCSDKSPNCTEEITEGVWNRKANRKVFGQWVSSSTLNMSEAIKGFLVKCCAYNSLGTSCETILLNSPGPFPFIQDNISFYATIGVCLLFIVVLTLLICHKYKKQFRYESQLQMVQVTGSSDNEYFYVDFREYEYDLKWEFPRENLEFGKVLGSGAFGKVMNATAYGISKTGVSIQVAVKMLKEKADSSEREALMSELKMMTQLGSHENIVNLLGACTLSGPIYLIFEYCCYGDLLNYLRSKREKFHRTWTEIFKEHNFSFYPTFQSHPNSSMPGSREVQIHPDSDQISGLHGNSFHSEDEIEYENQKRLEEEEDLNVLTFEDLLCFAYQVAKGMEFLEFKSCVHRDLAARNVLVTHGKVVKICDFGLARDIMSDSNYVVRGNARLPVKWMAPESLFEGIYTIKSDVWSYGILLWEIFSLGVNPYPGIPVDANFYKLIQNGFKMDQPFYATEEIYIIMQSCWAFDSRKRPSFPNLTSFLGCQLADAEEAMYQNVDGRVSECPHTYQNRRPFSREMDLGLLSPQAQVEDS

[4] = target: Ribosomal protein S6 kinase alpha-6 (Homo sapiens, UniProt Q9UK32); assay: Inhibition of recombinant full length human His6-tagged RSK4 expressed in baculovirus infected sf21 cells using biotin labelled Ahx-KKLNRTLSFAEPG peptide as substrate preincubated with enzyme for 15 mins followed by substrate addition and further incubated for 30 mins in presence of 10 uM of ATP by TR-FRET assay
Ribosomal protein S6 kinase alpha-6, sequence (Q9UK32 whole entry, the tested form may be a part): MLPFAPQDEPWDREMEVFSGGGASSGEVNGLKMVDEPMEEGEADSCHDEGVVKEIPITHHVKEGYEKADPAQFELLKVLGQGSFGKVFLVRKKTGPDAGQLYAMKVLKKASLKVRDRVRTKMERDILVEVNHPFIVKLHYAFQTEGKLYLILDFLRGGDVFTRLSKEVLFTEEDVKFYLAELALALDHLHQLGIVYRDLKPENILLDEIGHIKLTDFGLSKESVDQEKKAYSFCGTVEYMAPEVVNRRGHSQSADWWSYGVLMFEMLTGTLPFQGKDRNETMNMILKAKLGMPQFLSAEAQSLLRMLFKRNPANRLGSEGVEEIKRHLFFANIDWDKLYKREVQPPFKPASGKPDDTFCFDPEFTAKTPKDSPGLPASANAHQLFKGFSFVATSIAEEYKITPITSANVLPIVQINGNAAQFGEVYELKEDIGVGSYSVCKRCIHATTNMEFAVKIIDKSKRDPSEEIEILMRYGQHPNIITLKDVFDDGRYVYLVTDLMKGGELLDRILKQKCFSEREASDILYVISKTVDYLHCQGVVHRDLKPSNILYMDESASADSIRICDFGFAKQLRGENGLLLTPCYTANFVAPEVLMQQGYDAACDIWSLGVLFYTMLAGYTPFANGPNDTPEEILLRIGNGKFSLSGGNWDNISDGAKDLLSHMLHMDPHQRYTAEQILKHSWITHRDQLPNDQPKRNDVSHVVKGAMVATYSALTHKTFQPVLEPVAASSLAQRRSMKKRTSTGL

[5] = target: T3, Serine/threonine-protein kinase 17A (Homo sapiens, UniProt Q9UEE5); assay: Inhibition of wild-type human partial length DRAK1 (R32 to E363 residues) expressed in bacterial expression system by Kinomescan method
T3 sequence (Q9UEE5 whole entry): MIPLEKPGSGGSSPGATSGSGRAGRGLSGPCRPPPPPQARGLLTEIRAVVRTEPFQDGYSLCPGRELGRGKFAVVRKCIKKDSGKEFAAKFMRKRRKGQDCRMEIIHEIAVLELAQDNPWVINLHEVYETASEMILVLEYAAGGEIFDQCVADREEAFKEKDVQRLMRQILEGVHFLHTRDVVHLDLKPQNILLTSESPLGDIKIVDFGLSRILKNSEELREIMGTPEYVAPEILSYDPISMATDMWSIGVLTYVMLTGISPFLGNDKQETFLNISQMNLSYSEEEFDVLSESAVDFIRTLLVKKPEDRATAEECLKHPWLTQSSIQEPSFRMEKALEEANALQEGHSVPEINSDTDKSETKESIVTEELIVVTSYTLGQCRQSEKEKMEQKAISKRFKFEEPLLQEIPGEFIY

[6] = Efflux ratio of apparent permeability across basolateral to apical membrane over apical to basolateral membrane in human Caco2 cells; type: ADME, cell-based; conditions: Caco-2
[7] = target: T1, Serine/threonine-protein kinase TBK1
[8] = target: Cytochrome P450 3A4 (Homo sapiens, UniProt P08684); assay: Inhibition of CYP3A4 (unknown origin) measured under preincubated conditions; type: ADME
Cytochrome P450 3A4, sequence (P08684 whole entry): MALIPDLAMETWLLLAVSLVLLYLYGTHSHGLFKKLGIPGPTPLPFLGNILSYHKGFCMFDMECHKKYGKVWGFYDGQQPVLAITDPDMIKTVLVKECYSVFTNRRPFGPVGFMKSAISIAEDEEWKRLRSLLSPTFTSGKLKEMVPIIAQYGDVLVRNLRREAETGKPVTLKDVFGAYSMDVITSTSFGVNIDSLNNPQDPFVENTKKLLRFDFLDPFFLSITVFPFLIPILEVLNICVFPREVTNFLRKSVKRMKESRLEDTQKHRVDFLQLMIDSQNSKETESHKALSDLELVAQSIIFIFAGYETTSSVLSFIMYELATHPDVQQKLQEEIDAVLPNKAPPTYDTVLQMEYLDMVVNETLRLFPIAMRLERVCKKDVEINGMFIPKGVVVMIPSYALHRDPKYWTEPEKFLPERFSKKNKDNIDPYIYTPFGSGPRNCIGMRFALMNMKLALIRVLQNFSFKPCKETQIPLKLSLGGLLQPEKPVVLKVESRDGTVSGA

[9] = Clearance in human liver microsomes at 1 uM measured upto 60 mins in presence of NADP by LC-MS/MS analysis; type: ADME, Microsome; conditions: 1 h
[10] = Volume of distribution at steady state in Wistar rat at 0.30 mg/kg, iv via bolus or 0.30 mg/kg, po measured upto 24 hrs by LC-MS/MS analysis; type: ADME, organism-based; conditions: in vivo, 0.3 mg/kg, read-out: Vdss
[11] = Terminal half life in Wistar rat at 0.30 mg/kg, iv via bolus or 0.30 mg/kg, po measured upto 24 hrs by LC-MS/MS analysis; type: ADME, organism-based; conditions: in vivo, 0.3 mg/kg, read-out: beta t1/2 (converted)
[12] = Solubility of compound in water at pH 6.5; type: physicochemical

Structure (SMILES): Cc1noc(-c2ccc3nc(Nc4cc(CN5CCN(C(=O)CC(F)(F)F)CC5)ccn4)[nH]c3c2)n1
- IC50 [1]: 2270 nM
- IC50 [2]: 9670 nM
- IC50 [3]: 37 nM
- IC50 [4]: 8910 nM
- Kd [5]: 9 nM
- efflux ratio [6]: 3.4
- IC50 [7]: 129 nM

Structure (SMILES): C[C@H](c1ccnc(Nc2nc3ccc(-c4cc(OCC5CC5)ncn4)cc3[nH]2)c1)N1CCN(C(=O)CC(F)(F)F)CC1
- IC50 [1]: 5 nM
- IC50 [2]: 3870 nM
- IC50 [3]: 13 nM
- IC50 [4]: 1260 nM
- IC50 [7]: 2 nM

Structure (SMILES): COCc1cc(-c2ccc3nc(Nc4cc([C@@H](C)N5CCN(C(=O)CC(F)(F)F)CC5)ccn4)[nH]c3c2)ncn1
- IC50 [2]: 13400 nM
- IC50 [3]: 5 nM
- IC50 [4]: 192 nM
- IC50 [5]: 30 nM

Structure (SMILES): Cc1cc(-c2ccc3nc(Nc4cc([C@@H](C)N5CCN(C(=O)CC(F)(F)F)CC5)ccn4)[nH]c3c2)ncn1
- IC50 [1]: 17 nM
- IC50 [2]: 2010 nM
- IC50 [3]: 10 nM
- IC50 [4]: 170 nM
- IC50 [7]: 2 nM

Structure (SMILES): C[C@H](c1ccnc(Nc2nc3ccc(-c4cnn(CC5CC5)c4)cc3[nH]2)c1)N1CCN(C(=O)CC(F)(F)F)CC1
- IC50 [1]: 18 nM
- IC50 [2]: 5270 nM
- IC50 [3]: 18 nM
- IC50 [4]: 3220 nM
- Kd [5]: 5 nM
- efflux ratio [6]: 7.5
- IC50 [7]: 1 nM

Structure (SMILES): CC(C)Oc1cncnc1-c1ccc2nc(Nc3cc([C@@H](C)N4CCN(C(=O)CC(F)(F)F)CC4)ccn3)[nH]c2c1
- IC50 [1]: 50 nM
- IC50 [2]: 7960 nM
- IC50 [3]: 1 nM
- IC50 [4]: 7 nM
- IC50 [7]: 2 nM

Structure (SMILES): O=C(CC(F)(F)F)N1CCN(Cc2ccnc(Nc3nc4ccc(-c5cnn(CC6CC6)c5)cc4[nH]3)c2)CC1
- IC50 [1]: 137 nM
- IC50 [2]: 7900 nM
- IC50 [3]: 9 nM
- IC50 [4]: 4120 nM
- efflux ratio [6]: 3.9
- IC50 [7]: 5 nM

Structure (SMILES): CNc1cc(-c2ccc3nc(Nc4cc(CN5CCN(C(=O)CC(F)(F)F)CC5)ccn4)[nH]c3c2)ncn1
- IC50 [1]: 155 nM
- IC50 [2]: 29800 nM
- IC50 [3]: 6 nM
- IC50 [4]: 177 nM
- IC50 [5]: 25 nM
- IC50 [7]: 10 nM

Structure (SMILES): CN(C)c1cc(-c2ccc3nc(Nc4cc(CN5CCN(C(=O)CC(F)(F)F)CC5)ccn4)[nH]c3c2)ncn1
- IC50 [1]: 167 nM
- IC50 [2]: 9690 nM
- IC50 [3]: 114 nM
- IC50 [4]: 528 nM
- IC50 [5]: 252 nM
- IC50 [7]: 9 nM

Structure (SMILES): C[C@H](c1ccnc(Nc2nc3ccc(-c4cc(N(C)C)ncn4)cc3[nH]2)c1)N1CCN(C(=O)CC(F)(F)F)CC1 [BAY-985]
- IC50 [1]: 30 nM
- IC50 [2]: 7260 nM
- IC50 [3]: 123 nM
- IC50 [4]: 276 nM
- IC50 [5]: 311 nM
- efflux ratio [6]: 17
- IC50 [8]: > 20000 nM
- CLH [9]: 8.3 mL/min/kg
- Vd [10]: 2.9 L/kg
- half-life [11]: 47.4 min
- solubility [12]: 0.8 µg/mL (≈ 1.45 µM)
- IC50 [7]: 2 nM

Structure (SMILES): Cc1noc(-c2ccc3nc(Nc4cc([C@@H](C)N5CCN(C(=O)CC(F)(F)F)CC5)ccn4)[nH]c3c2)n1
- IC50 [1]: 372 nM
- IC50 [2]: 8980 nM
- IC50 [3]: 30 nM
- IC50 [4]: 2360 nM
- Kd [5]: 10 nM
- efflux ratio [6]: 0.8
- IC50 [7]: 19 nM
